Each structure is given as a SMILES string.

The subject of test [1] is cardiomyocyte-depleted small cells. The test is described as follows: Culture of cardiomyocyte-depleted small cells, cTnT immunocytochemistry. Conditions: PGE2 10 μm for three days. Format: cell-based, mouse. As to the method:
Cardiomyocyte-depleted cardiac small cells were prepared as previously described with some modifications (Oh, H. et al. Proc. Natl. Acad. Sci. USA 100, 12313-12318 (2003); and Pfister, O. et al. Circ. Res. 97, 52-61 (2005)). Specifically, instead of using a 70 μm and then a 45 μm strainer to isolate the cardiomyocyte-depleted cardiac small cells, the cells were filtered through a 45 μm strainer directly after enzyme digestion. The minced heart tissue was digested with 0.1% collagenase B (Roche Molecular Biochemicals), 2.4 U/ml dispase II (Roche Molecular Biochemicals) and 2.5 mmol/L CaCl2 at 37° C. for 30 minutes and then filtered through a 45-μm filter. For isolation of cardiac Sca-1^+ cells, the cardiac small cells were incubated with the Phycoerythrin (PE)-conjugated Sca-1^+ antibodies (BD Bioscience) at 4° C. for 30 minutes. The PE-labeled Sca-1^+ cells were then sorted by the magnetic particles against PE (BD Biosciences). Incubation of cardiomyocyte-depleted small cells with anti-Sca-1-PE antibody and magnetic cell sorting were omitted for isolation of Sca-1^+ cells from the Sca-1-GFP transgenic mice. After isolation, the cells were fixed in 2% paraformaldehyde for 20 minutes and followed by 1 hour blocking in PBS with 1% BSA. […]

A further test concerns interleukin-10 (IL-10). The test is described as follows: Quantitative RT-PCR of IL-10 at injured region. Conditions: both young and old mice; day 3 after infarction. Format: in vivo, mouse. On the procedure: To induce Cre recombination to achieve GFP labeling of cardiomyocytes, tamoxifen (Sigma) was dissolved in sunflower oil (Sigma) at a concentration of 5 mg/ml. The tamoxifen solution was injected intraperitoneally into M/Z mice daily at a dosage of 40 μg per 1 g body weight for 14 days, and the same dosage was injected twice daily for short-term labeling using methods known in the art (Laugwitz, K.-L. et al. Nature 433, 647-653 (2005)). All experimental conditions were optimized prior to the PGE2, indomethacin and TGF-β Type I Receptor Kinase Inhibitor II (ALK5 Inhibitor II, ALK5i, Merck) treatments. The mice treated with PGE2 or PGI2 (Vegiopoulos, A. et al. Science 328, 1158-1161 (2010)) (both from Sigma) were injected intraperitoneally with 3.33 ng of drug per 1 g of body weight dissolved in absolute ethanol twice daily. […]
The total RNA isolated from the ischemic region or remote area of MI hearts was reverse transcribed using the SuperScript III (Invitrogen) system according to the manufacturer's protocol. For quantitative PCR, the SYBR Green reagent (Maestrogen) was used according to the manufacturer's protocol. The analysis of relative gene expression was performed using the 2̂[−delta delta Ct] method and sequence-specific primers designed for semi-quantitative PCR and real-time RT-PCR (FIG. 11).

The subject of another test is MerCreMer/ZEG (M/Z) mice. Kind of test: Cardiomyocyte replenishment after myocardial infarction, GFP+ / β-Gal+ cardiomyocyte counting. Type of test: in vivo, mouse. Conditions: for stem cell-mediated cardiomyocyte reconstitution: aged mice (>18 months), 14 days post-MI. On the procedure:
All experiments involving animals were conducted in accordance with the Guide for the Use and Care of Laboratory Animals, and all animal protocols have been approved by National Cheng Kung University. Sca-1^− GFP, B6.Cg-Tg(Ly6a-GFP)G5Dzk/J and EP2^−/−, B6.129-Ptger2^tm/Brey/J mice were obtained from Jackson Laboratory. The double transgenic MerCreMer/ZEG (M/Z) mice were generated by crossbreeding MerCreMer and Z/EG mice (Jackson Laboratory), which have C57BL/6SV129 and C57BL/6J (N7) background strains, respectively. The MerCreMer mice contain a tamoxifen-inducible Cre recombinase fusion protein driven by the cardiomyocyte-specific α-MHC promoter. In Z/EG mice, GFP replace constitutive β-Gal expression after the removal of a LoxP-flanked stop sequence by Cre.
M/Z mice were subjected to experimental myocardial infarction (MI) one month after the last tamoxifen injection. MI was generated by ligating the left anterior descending coronary artery at 2-3 mm distal to the left atrial appendage. For cell transplantation experiments, intramyocardial injections were performed immediately after coronary ligation. A total of 6×10^5 cardiac Sca-1^+ cells were injected per mouse in two divided injections (5 μl/injection). For BrdU labeling, the mice were subcutaneously implanted with osmotic minipump (Alzet) at the time of surgery and 40 μg/μl of BrdU (Sigma) was administrated. For immunohistological studies, mice were sacrificed and the hearts were harvested at different time points following experimental MI surgery. Cardiac performances were assessed by echocardiography at 28 and 56 days after operation using Vevo 770 (Visualsonics, Toronto, Canada).
To induce Cre recombination to achieve GFP labeling of cardiomyocytes, tamoxifen (Sigma) was dissolved in sunflower oil (Sigma) at a concentration of 5 mg/ml. The tamoxifen solution was injected intraperitoneally into M/Z mice daily at a dosage of 40 μg per 1 g body weight for 14 days, and the same dosage was injected twice daily for short-term labeling using methods known in the art (Laugwitz, K.-L. et al. Nature 433, 647-653 (2005)). All experimental conditions were optimized prior to the PGE2, indomethacin and TGF-β Type I Receptor Kinase Inhibitor II (ALK5 Inhibitor II, ALK5i, Merck) treatments. The mice treated with PGE2 or PGI2 (Vegiopoulos, A. et al. Science 328, 1158-1161 (2010)) (both from Sigma) were injected intraperitoneally with 3.33 ng of drug per 1 g of body weight dissolved in absolute ethanol twice daily. For the indomethacin treatment, mice were fed with water containing indomethacin (Sigma, 15 μg/ml) for different periods of time. The indomethacin-containing water was changed every 3 days. The mice subjected to the celecoxib (Lyons, T. R. et al. Nat. Med. 17, 1109-1115 (2011)) (Sigma) treatment were injected intraperitoneally with 5 μg of drug per 1 g of body weight daily. For ALK5i treatment, aged mice were injected intraperitoneally once per day with 1 μg of drug per 1 g of body weight one day before surgery and continuously until day 10 post-MI. Celecoxib and ALK5i were dissolved in ethanol and DMSO, respectively.
All of the cellular quantifications were performed double-blindly to minimize personal bias. […] For the cardiomyocyte cell counts, 3 sections from each heart, and 2 infarction border zones and 1 remote area from each section were analyzed at a magnification of 200× by light microscopy. Cells with visible sarcomere structures were analyzed, and the average number of cells counted was 171.8±5.8 per photo image. For the small cardiac cell counts, more than five sections from each heart were analyzed at a magnification of 400× using fluorescence microscopy. The average number of cells counted was 17.01±0.99 per photo image, and more than one hundred and fifty cells were analyzed from each heart. As quantification result is the averaged values calculated from the pictures taken from six border zone sections per heart, personal variation has been minimized. […]

Take `CCCCC[C@H](O)/C=C/C1C(O)CC(=O)C1C/C=C\CCCC(=O)O` (stereo partly drawn) [PGE2, (5Z,11α,13E,15S)-7-[3-hydroxy-2-(3-hydroxyoct-1-enyl)-5-oxo-cyclopentyl]hept-5-enoic acid]: in test [1], the “mature sarcomeric structure, as determined by the expression of cTnT” value is reported as “seen”. Further, the “expression of interleukin-10 (IL-10)” value in the test with interleukin-10 (IL-10) is given as “enhanced”. The “stem cell-mediated cardiomyocyte reconstitution” value with MerCreMer/ZEG (M/Z) mice (border zone, P<0.01 versus sham or MI) is “successfully recover”; in the test with MerCreMer/ZEG (M/Z) mice (remote area), “not in the remote area”. Also, the “rescue of cardiomyocyte replenishment compared to indomethacin treatment alone” value with MerCreMer/ZEG (M/Z) mice (border zone, PGE2 plus indomethacin, P<0.01) was “about 10%”. In addition, the “increase of cardiomyocyte replenishment compared to the vehicle control” value in the test on MerCreMer/ZEG (M/Z) mice (border zone, young mice, 3.33 ng per 1 g i.p. twice daily for 14 days, P<0.01) is recorded as “about 9%”.
